US20110086884A1, “BARIUM SALT OF BENZIMIDAZOLE DERIVATIVE” (priority 2003, published 2011)

Assay: hygroscopicity of the solid salt
Type: physicochemical
Details: both crystalline and amorphous forms

hygroscopicity: non-hygroscopic
SMILES: COc1ccc2[nH]c([S@@+]([O-])Cc3ncc(C)c(OC)c3C)nc2c1 [(S)-omeprazole barium, (S)-5-methoxy-2-[[(4-methoxy-3,5-dimethyl-2-pyridinyl)-methyl]sulfinyl]-1H-benzimidazole]
